Test results reported in patent US20130317214A1, “METHOD FOR PRODUCING MALEATE USING WET CRYSTAL” (KYORIN PHARMACEUTICAL CO., LTD., priority 2010, published 2013).

Columns and labels:
[1] = Stability test of compound (2) (powder X-ray diffraction); assay type: physicochemical; conditions: sealed in a brown bottle, stored at 25° C. for 2 weeks and 4 weeks
Procedure: A filling section of a plate sample holder made of glass was filled with a sample, and powder x-ray diffraction of the sample was then measured using RINT2200 powder x-ray diffractometer manufactured by Rigaku Corporation.
Tube current: 36 mA Tube voltage: 40 kV Scanning rate: 2°/min wavelength: 1.5405 Å (Kα1), 1.5443 Å (Kα2), 1.3922 Å (Kβ1) Divergence slit: 1° Receiving slit: 0.15 mm Scattering slit: 1° Anticathode: copper Scanning range: 5 to 40°
The wet crystal of the compound (2) (Example 1) and the dried product (Reference Example 1) were each sealed in a brown bottle, and stored at 25° C. for 2 weeks and 4 weeks. After the storage, the powder x-ray diffraction of each sample was measured in accordance with the method of Test Example 1.

[2] = Stability test of compound (2) (physical properties); assay type: physicochemical; conditions: for physical properties when stored under a condition of 30° C.: storage time not given

For CCc1cc(OC)cc2nc(-c3cccnc3N3CC[C@H](N(C)C)C3)oc(=O)c12 [dried product of the compound (2)], the “crystal state by powder x-ray diffraction after storage” value [1] was “complete amorphous form”, the “physical properties on 3 days after the storage at 30° C.” value ([2]; sealed in a brown bottle, 3 days) was “changed into a glassy mass” and the “physical properties when stored under a condition of 30° C.” value [2] was “changed into a glassy solid”.
For CCc1cc(OC)cc2nc(-c3cccnc3N3CC[C@H](N(C)C)C3)oc(=O)c12 [wet crystal of the compound (2)], the “crystal state by powder x-ray diffraction after storage” value [1] was “change in the crystal state of the wet crystal of the compound (2) was not observed” and the “physical properties when stored under a condition of 30° C.” value [2] was “the state of white powder was maintained”.
